{"source": "patent US20100254940A1", "about": "“Compositions and Methods for Regulating an Immune Response in a Subject” (INNATE PHARMA, S.A., priority 2002, published 2010)", "key": {"[1]": {"system": "γδ T cell", "assay": "γδ T cell amplification from human PBMCs, counting γδ T cell using flow cytometry (given as in vivo EC50)", "type": "cell-based", "details": "γδ T cell amplification from human PBMCs, flow cytometry count", "procedure": "The biological activity of γδ T cell amplification from human PBMCs was assessed by counting γδ T cell using flow cytometry.\nIn vitro proliferation assays and in vitro TNFα release assay are performed essentially as described in Example 3."}, "[2]": {"system": "γδ T cell", "assay": "In vitro TNFα release assay, γδ T cell amplification from human PBMCs (in the presence of rhIL2)", "type": "cell-based", "details": "TNFα release assay; human PBMCs, rhIL2", "procedure": "The in vitro biological activity of γδ T cell amplification from human PBMCs (in the presence of rhIL2) was assessed using a TNFα release assay.\nCytokine secretion and cytolytic activity can be assessed using any appropriate in vitro assay, or those provided in the examples herein. For example, cytokine secretion can be determined according to the methods described in Espinosa et al. (J. Biol. Chem., 2001, Vol. 276, Issue 21, 18337-18344), describing measurement of TNF-α release in a bioassay using TNF-α-sensitive cells. Briefly, 10^4 γδT cells/well were incubated with stimulus plus 25 units of IL2/well in 100 μl of culture medium during 24 h at 37° C. Then, 50 μl of supernatant were added to 50 μl of WEHI cells plated at 3×10^4 cells/well in culture medium plus actinomycin D (2 μg/ml) and LiCl (40 mM) and incubated for 20 h at 37° C. Viability of the TNF-α-sensitive cells and measured with a 3-(4,5-dimethylthiazol-2-yl)-2,5-diphenyltetrazolium bromide assay. 50 μl of 3-(4,5-dimethylthiazol-2-yl)-2,5-diphenyltetrazolium bromide (Sigma; 2.5 mg/ml in phosphate-buffered saline) per well were added, and after 4 h of incubation at 37° C., 50 μl of solubilization buffer (20% SDS, 66% dimethyl formamide, pH 4.7) were added, and absorbance (570 nm) was measured. Levels of TNF-α release were then calculated from a standard curve obtained using purified human rTNF-α (PeproTech, Inc., Rocky Hill, N.J.). Interferon-γ released by activated T cells was measured by a sandwich enzyme-linked immunosorbent assay. 5×10^4 γδT cells/well were incubated with stimulus plus 25 units of IL2/well in 100 μl of culture medium during 24 h at 37° C. Then, 50 μl of supernatant were harvested for enzyme-linked immunosorbent assay using mouse monoclonal antibodies (BIOSOURCE, Camarillo, Calif.). […]\nBrHPP and HDMAPP bioactivity were compared using in vitro and in vivo assays. The in vitro biological activity of γδ T cell amplification from human PBMCs (in the presence of rhIL2) was assessed using a TNFα release assay."}, "[3]": {"system": "γδ T cells", "assay": "Supplementary pharmaco-dynamics studies, consecutive injections of BrHPP in male cynomolgus monkeys", "type": "in vivo", "procedure": "We have thus performed other non-GLP pharmaco-dynamics studies in male cynomolgus monkeys in order to further document the features of in vivo γδ T cells response to consecutive injections of BrHPP, varying either the dose or the time-laps between injections.\nIn vivo amplification was assessed after 4 successive injections of 20 or 80 mg/kg Phosphostim®, 4 or 8 weeks apart."}, "[4]": {"system": "Vγ9Vδ2 T cells", "assay": "Phosphostim (BrHPP) i.v. pharmaco-dynamic GLP study in cynomolgus monkeys", "type": "in vivo", "procedure": "The objective of this GLP study was to explore further the pharmaco-dynamic properties of Phosphostim (BrHPP, 200 mg; GMP batch) alone and in combination with IL-2 following several i.v. administrations to cynomolgus monkeys. In particular, this study was planned to evaluate: • A dose-effect relationship between Phosphostim injection and γδ T cell peripheral amplification; • The pharmaco-dynamic effect of a second, third and up to fifth administration of Phosphostim in male and female animals; • The functionality of in vivo induced γδ T cells, by dosing systemic cytokines after Phosphostim treatment; • The effect of treatment with IL-2 alone and to validate the selected dose of 0.6 million IU/day/animal.\nPhosphostim was administered i.v., as slow infusions (50 ml in 30 minutes), at various dose levels to five groups of two animals (one male+one female). Males received two successive injections of BrHPP (Day 0 and Day 22) before sacrifice and females four injections (Days 0, 22, 52 and 84). Two females, selected upon their level of response to the 4th treatment, received a supplementary injection of BrHPP alone at Day 91, during γδ cell peripheral increase, for systemic cytokine dosages.\nThe administration schedule of the test product can be summarized as follows in Table 1:\nThe dose levels in Table 1 are can be converted to BrHPP pure (anionic) form equivalent by multiplying each dose by 0.6. Thus, the doses of 0.2, 4, 20, 50, 80, 120 and 160 mg/kg in Table 1 are equivalent respectively to 0.12, 2.4, 12, 30, 48, 72 and 96 mg/kg of anionic form BrHPP. • IL-2 was administered s.c. at the following frequency: from Day 0 to Day 6 and from Day 22 to Day 28 for all animals; from Day 52 to 58 and from Day 84 to Day 90 for all the females. IL-2 was administered as two separate s.c. injections approximately 8 hours apart of 0.3 million IU, corresponding to 0.6 million IU/day/animal."}, "[5]": {"system": "Vγ9Vδ2 T cells", "assay": "Expansion of peripheral blood Vγ9Vδ2 T cells from PBMCs of mRCC patients with BrHPP and IL2", "type": "cell-based, human", "details": "3 μM BrHPP + IL2, 15 days; 7 patients out of 12", "procedure": "Blood samples from 12 RCC patients (50 ml) were collected just before or no more than 2 months after the nephrectomy. PBMCs were isolated by centrifugation on Ficoll-Hypaque density gradient (Amersham Biosciences). PBMCs from one healthy volunteer was used as control.\nTen million PBMCs were cultured at 2×10^6/ml in 24 well plate in RPMI 1640 supplemented with 10% v/v fetal calf serum (Fetal Clone irradiated, Hyclone).\nPolyclonal Vγ9Vδ2 T cell lines were specifically expanded in presence of 3 μM BrHPP molecule (batch INPA-0214) and 100 IU/ml IL2 during 15 days.\nEvery three days, the volume corresponding to half culture medium was replaced by fresh medium containing only 200 IU/ml IL2\nBefore in vitro culture, phenotype of 2×10^5 PBMCs from RCC patients was analyzed using the following combinations of fluorescein isothiocyanate (FITC), phycoerythrin (PE) and phycoreythrin-cyanin 5 (PC5) conjugated antibodies to determine the NK, αβ and γδ T cells population (all purchased from Beckman-Coulter): CD3-PC5/Vδ2-FITC/IgG1-PE, CD8-PE, CD56-PE. At day 15 of the culture, a triple staining was performed on the expanded Vδ9Vδ2 T cells bulk. The following antibodies combinations were performed: […]"}}}
{"substance": "3-(bromomethyl)-3-butanol-1-yl-diphosphate [BrHPP]", "values": [{"measurement": "EC50", "setting": "[1]", "result": "~1", "unit": "nM"}, {"measurement": "EC50", "setting": "[2]", "result": "~30", "unit": "nM"}, {"measurement": "in vivo amplification of γδ cells", "setting": "[3]; 4 successive injections of 20 or 80 mg/kg Phosphostim, 4 or 8 weeks apart", "result": "repeated increases of γδ cells"}, {"measurement": "γδ cell rate and absolute count in the periphery", "setting": "[3]; at least 3 successive injections, 8 weeks apart, 20 or 80 mg/kg, males", "result": "significant increases"}, {"measurement": "γδ cell rate and absolute count", "setting": "[3]; at least 4 successive injections, 4 weeks apart, 20 mg/kg, males", "result": "detectable increases"}, {"measurement": "γδ cell number increase", "setting": "[4]; 20 mg/kg (12 mg/kg anionic form) + IL-2", "result": 20, "unit": "fold"}, {"measurement": "increase in circulating γδ cell count", "setting": "[4]; at around 120 mg/kg (EC50) + IL-2", "result": 100, "unit": "fold"}, {"measurement": "circulating Vγ9Vδ2 T cells vs before treatment", "setting": "[4]; highest tested dose + IL-2", "result": 200, "unit": "fold"}, {"measurement": "share of circulating Vγ9Vδ2 T cells in peripheral lymphocytes", "setting": "[4]; highest tested dose + IL-2", "result": "represented the majority of peripheral lymphocytes"}, {"measurement": "estimated EC50 value in vivo, anionic form BrHPP", "setting": "[4]; i.v. + IL-2", "result": "~72", "unit": "mg/kg"}, {"measurement": "estimated EC50 value of BrHPP in vivo", "setting": "[4]; i.v. + IL-2", "result": "around 120 mg/kg"}, {"measurement": "first slightly efficient tested dose", "setting": "[4]; i.v. + IL-2, Day 7", "result": 4, "unit": "mg/kg"}, {"measurement": "first slightly efficient tested dose, anionic form BrHPP", "setting": "[4]; i.v. + IL-2, Day 7", "result": 2.4, "unit": "mg/kg"}, {"measurement": "patients presenting a Vγ9Vδ2 T cells amplification", "setting": "[5]", "result": 58, "unit": "%"}]}
